Reference: patent US20160138077A1, “MONITORING AND ASSESSING DEACETYLASE ENZYME ACTIVITY” (THE GENERAL HOSPITAL CORPORATION, priority 2013, published 2016)

Key:
Assay type in all cases: biochemical
Details in all cases: 5 μM probe, 12 hours at 37° C.
HDAC6 = target: T1, HDAC6 (Homo sapiens, UniProt Q9UBN7); experiment: LCMS characterization of enzymatic deacetylation by HDAC6
T1 sequence (Q9UBN7 1-1215): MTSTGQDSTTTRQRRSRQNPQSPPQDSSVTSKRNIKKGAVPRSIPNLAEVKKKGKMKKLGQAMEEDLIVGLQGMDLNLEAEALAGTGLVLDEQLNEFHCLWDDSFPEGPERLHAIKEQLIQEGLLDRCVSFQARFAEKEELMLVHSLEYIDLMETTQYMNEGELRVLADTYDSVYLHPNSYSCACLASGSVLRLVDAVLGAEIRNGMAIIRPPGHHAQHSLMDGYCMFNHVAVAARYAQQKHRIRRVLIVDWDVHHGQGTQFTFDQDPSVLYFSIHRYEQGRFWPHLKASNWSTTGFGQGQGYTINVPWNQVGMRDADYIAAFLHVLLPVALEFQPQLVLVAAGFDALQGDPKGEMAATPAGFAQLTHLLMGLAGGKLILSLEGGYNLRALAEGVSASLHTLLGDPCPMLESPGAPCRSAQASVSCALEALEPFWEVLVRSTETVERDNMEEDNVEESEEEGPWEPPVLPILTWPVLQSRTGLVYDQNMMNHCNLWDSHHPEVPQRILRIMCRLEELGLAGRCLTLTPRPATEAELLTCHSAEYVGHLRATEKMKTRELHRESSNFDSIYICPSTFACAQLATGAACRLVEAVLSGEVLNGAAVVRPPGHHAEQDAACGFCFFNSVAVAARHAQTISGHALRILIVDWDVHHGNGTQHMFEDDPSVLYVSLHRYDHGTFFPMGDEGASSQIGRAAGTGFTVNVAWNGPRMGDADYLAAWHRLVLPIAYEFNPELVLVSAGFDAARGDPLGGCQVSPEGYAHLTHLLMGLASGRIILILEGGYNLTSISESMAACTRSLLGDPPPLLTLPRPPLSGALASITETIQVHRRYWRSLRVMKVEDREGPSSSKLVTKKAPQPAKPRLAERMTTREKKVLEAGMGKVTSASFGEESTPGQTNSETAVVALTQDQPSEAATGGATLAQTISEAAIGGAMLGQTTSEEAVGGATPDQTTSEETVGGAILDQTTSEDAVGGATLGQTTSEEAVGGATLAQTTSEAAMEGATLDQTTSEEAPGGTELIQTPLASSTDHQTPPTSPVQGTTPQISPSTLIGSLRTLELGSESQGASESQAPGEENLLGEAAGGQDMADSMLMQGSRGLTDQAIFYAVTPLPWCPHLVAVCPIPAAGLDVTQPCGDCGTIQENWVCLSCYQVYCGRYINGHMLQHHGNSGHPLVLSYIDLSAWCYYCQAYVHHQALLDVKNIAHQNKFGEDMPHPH
Description: (§1) The enzymatic cleavage of HP-1 and HP-2 was analyzed by performing LCMS assays with HeLa nuclear extract (AnaSpec), HeLa whole cell lysate (Santa Cruz Inc.), and the following purified HDAC isoforms: 1, 2, 3, 6 and 8 (HDAC1, 3 and 8 from Cayman Chemicals and HDAC2 and 6 provided by Dr. Stephen Haggarty). Solutions containing (i) vehicle with DMSO in HDAC buffer, (ii) 5 μM probe in HDAC buffer, (iii) 5 μM probe and HDAC enzyme/HeLa nuclear extract/HeLa whole cell lysate in HDAC buffer, or (iv) 5 μM probe and HDAC enzyme/HeLa nuclear extract/HeLa whole cell lysate pre-incubated with 10 μM SAHA (Provided by Dr. Stephen Haggarty) in HDAC buffer were incubated for 12 hours at 37° C. Following incubation, a 20 μL aliquot of supernatant from each sample was analyzed by LCMS. […] For HP-1, the (M+H)^+ ion for the corresponding aldehyde (8, DHP-1) was detected, which formed following reaction of the initial imine deacetylation product with water. […] The peak area for each detected compound was measured to determine the % deacetylation of each probe. All assay samples were analyzed in triplicate. […]
(§2) LCMS characterization of HDAC enzymatic action on HP-1 and HP-2. […] Following incubation, an aliquot of supernatant from each sample was analyzed by LCMS. […] The peak area for each detected compound was measured to determine the % deacetylation of each probe (full experimental details in Example 1).

HDAC2 = HDAC2 (Homo sapiens, UniProt Q92769); experiment: LCMS characterization of enzymatic deacetylation by HDAC2
Description: as §1, §2

HDAC8 = target: T2, HDAC8 (Homo sapiens, UniProt Q9BY41); experiment: LCMS characterization of enzymatic deacetylation by HDAC8
T2 construct: purchased Cayman Chemicals
T2 sequence (Q9BY41 1-377): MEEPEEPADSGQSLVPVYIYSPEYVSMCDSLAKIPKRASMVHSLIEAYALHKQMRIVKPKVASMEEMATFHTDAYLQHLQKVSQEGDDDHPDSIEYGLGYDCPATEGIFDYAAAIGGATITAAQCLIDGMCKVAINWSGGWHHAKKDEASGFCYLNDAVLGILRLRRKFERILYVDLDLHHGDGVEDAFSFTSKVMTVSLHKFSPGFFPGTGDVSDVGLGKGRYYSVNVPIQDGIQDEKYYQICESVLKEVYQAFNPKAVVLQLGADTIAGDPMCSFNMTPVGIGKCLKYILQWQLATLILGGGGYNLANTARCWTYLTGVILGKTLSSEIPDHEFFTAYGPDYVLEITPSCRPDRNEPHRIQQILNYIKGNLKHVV
Description: as §1, §2

Measured: % HP-1 to DHP-1

Sequence of HDAC2 (Q92769 whole entry, species assumed): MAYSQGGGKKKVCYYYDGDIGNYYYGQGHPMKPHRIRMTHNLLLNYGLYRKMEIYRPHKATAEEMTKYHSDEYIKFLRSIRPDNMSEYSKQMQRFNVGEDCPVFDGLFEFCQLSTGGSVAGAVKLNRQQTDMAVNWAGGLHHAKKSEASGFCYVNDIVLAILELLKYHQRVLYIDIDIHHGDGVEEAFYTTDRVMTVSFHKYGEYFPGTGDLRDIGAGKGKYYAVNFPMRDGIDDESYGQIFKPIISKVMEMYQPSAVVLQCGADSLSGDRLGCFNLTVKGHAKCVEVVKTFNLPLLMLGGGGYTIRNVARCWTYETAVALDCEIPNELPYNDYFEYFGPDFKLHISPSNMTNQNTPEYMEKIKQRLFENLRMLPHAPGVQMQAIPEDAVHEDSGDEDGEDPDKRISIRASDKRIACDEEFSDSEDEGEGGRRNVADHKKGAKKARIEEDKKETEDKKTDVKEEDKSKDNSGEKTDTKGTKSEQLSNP

CC(=O)NC=CCCCCNC(=O)CCCCCNc1ccc([N+](=O)[O-])c2nonc12 [HP-1]
0%: HDAC6; HDAC6, +SAHA (10 μM) | HDAC6; HDAC6, −SAHA | HDAC2; HDAC2, +SAHA (10 μM) | HDAC2; HDAC2, −SAHA | HDAC8; HDAC8, +SAHA (10 μM) | HDAC8; HDAC8, −SAHA
